We go through 25 compounds from patent publication US11787780B2 (CORCEPT THERAPEUTICS INCORPORATED, priority 2020, dated 2023).

The target of test [1] is glucocorticoid receptor (GR) recombinant ligand binding domain (LBD) (Homo sapiens (Human), UniProt P04150). Nature of the test: GR binding fluorescence polarisation (FP) assay. The conditions noted are these: displacement of fluorescently tagged ligand. On the procedure:
Binding of test compounds to the glucocorticoid receptor (GR) is determined using a fluorescence polarisation (FP) assay utilising a recombinant ligand binding domain (LBD) of GR. The test compounds are assessed by their ability to displace a fluorescently tagged ligand and detection of the resulting decrease in fluorescence polarisation.

For test [2], the system named is induction of TAT by dexamethasone in HepG2 cells. Nature of the test: Hep G2 TAT assay (inhibition of dexamethasone-induced TAT). The format is cell-based, human. The conditions noted are these: challenge of 100 nM dexamethasone, IC50 converted to Ki by Cheng and Prusoff equation.

glucocorticoid receptor (GR) recombinant ligand binding domain (LBD), sequence (P04150 524-758): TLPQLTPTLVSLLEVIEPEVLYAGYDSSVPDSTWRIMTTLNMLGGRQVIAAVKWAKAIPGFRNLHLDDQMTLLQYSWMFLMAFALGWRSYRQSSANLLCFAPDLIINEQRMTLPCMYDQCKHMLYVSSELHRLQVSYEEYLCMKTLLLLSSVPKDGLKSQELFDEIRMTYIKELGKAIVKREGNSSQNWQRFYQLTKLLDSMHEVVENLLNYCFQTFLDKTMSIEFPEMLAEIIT

In general, IC50 refers to the concentration needed to halve the response being measured. As a reminder, the Ki is the equilibrium dissociation constant of an inhibitor or competing ligand from its target. As for `Cc1cc2c(cnn2-c2cnn(C)c2)cc1C1(Cc2ccccc2)CCN(S(=O)(=O)c2cnn(C)n2)C1` (centres unmarked) [Example 249, 5-(3-benzyl-1-((2-methyl-2H-1,2,3-triazol-4-yl)sulfonyl)pyrrolidin-3-yl)-6-methyl-1-(1-methyl-1H-pyrazol-4-yl)-1H-indazole], in test [1], the IC50 worked out at 4.8 nM. For the same compound, the Ki in test [2] is 39 nM.

As to `[2H]C([2H])([2H])n1cc(-n2ncc3cc(C4(Cc5ccccc5)CCN(S(=O)(=O)c5cnn(C)n5)C4)c(C)cc32)cn1` (centres unmarked) [Example 250, 5-(3-benzyl-1-((2-methyl-2H-1,2,3-triazol-4-yl)sulfonyl)pyrrolidin-3-yl)-6-methyl-1-(1-(methyl-d3)-1H-pyrazol-4-yl)-1H-indazole], the IC50 in test [1] amounted to 4.1 nM. The same compound registered a Ki in test [2] of 26 nM.

`COc1nn(C)cc1-n1ncc2cc(C3(Cc4ccccc4)CCN(S(=O)(=O)c4cnn(C)n4)C3)c(C)cc21` (centres unmarked) [Example 251, 5-(3-benzyl-1-((2-methyl-2H-1,2,3-triazol-4-yl)sulfonyl)pyrrolidin-3-yl)-1-(3-methoxy-1-methyl-1H-pyrazol-4-yl)-6-methyl-1H-indazole]: the IC50 in test [1] came to 27 nM. In test [2], this compound showed a Ki of 180 nM.

For the compound `Cc1cc2c(cnn2-c2cnn(C3CC3)c2)cc1C1(Cc2ccccc2)CCN(S(=O)(=O)c2cnn(C)n2)C1` (centres unmarked) [Example 252, 5-(3-benzyl-1-((2-methyl-2H-1,2,3-triazol-4-yl)sulfonyl)pyrrolidin-3-yl)-1-(1-cyclopropyl-1H-pyrazol-4-yl)-6-methyl-1H-indazole], the IC50 in test [1] came to 29 nM. Moreover, the Ki in test [2] was determined as 94 nM.

Consider `Cc1cc2c(cnn2-c2cnn(C)c2C)cc1C1(Cc2ccccc2)CCN(S(=O)(=O)c2cnn(C)n2)C1` (centres unmarked) [Example 253, 5-(3-benzyl-1-((2-methyl-2H-1,2,3-triazol-4-yl)sulfonyl)pyrrolidin-3-yl)-1-(1,5-dimethyl-1H-pyrazol-4-yl)-6-methyl-1H-indazole], for which, in test [1], the IC50 stood at 24 nM. Moreover, the Ki in test [2] came out at 240 nM.

Take `Cc1cc2c(cnn2-c2cnn(C(F)(F)F)c2)cc1C1(Cc2ccccc2)CCN(S(=O)(=O)c2cnn(C)n2)C1` (centres unmarked) [Example 254, 5-(3-benzyl-1-((2-methyl-2H-1,2,3-triazol-4-yl)sulfonyl)pyrrolidin-3-yl)-6-methyl-1-(1-(trifluoromethyl)-1H-pyrazol-4-yl)-1H-indazole]: the 50% inhibitory concentration (IC50) in test [1] is 87 nM. The compound further came in with a Ki in test [2] of 44 nM.

On to `Cc1cc2c(cnn2-c2cnn(C(F)F)c2)cc1C1(Cc2ccccc2)CCN(S(=O)(=O)c2cnn(C)n2)C1` (centres unmarked) [Example 255, 5-(3-benzyl-1-((2-methyl-2H-1,2,3-triazol-4-yl)sulfonyl)pyrrolidin-3-yl)-1-(1-(difluoromethyl)-1H-pyrazol-4-yl)-6-methyl-1H-indazole], for which the IC50 in test [1] is 27 nM. The compound also had a Ki in test [2] of 44 nM.

On to `Cc1cc2c(cnn2-c2cn(C)nc2C)cc1C1(Cc2ccccc2)CCN(S(=O)(=O)c2cnn(C)n2)C1` (centres unmarked) [Example 257, 5-(3-benzyl-1-((2-methyl-2H-1,2,3-triazol-4-yl)sulfonyl)pyrrolidin-3-yl)-1-(1,3-dimethyl-1H-pyrazol-4-yl)-6-methyl-1H-indazole], for which, in test [1], the IC50 came to 52 nM. Also, the affinity in test [2], expressed as Ki, was 220 nM.

`CCn1cc(-n2ncc3cc(C4(Cc5ccccc5)CCN(S(=O)(=O)c5cnn(C)n5)C4)c(C)cc32)cn1` (centres unmarked) [Example 258, 5-(3-benzyl-1-((2-methyl-2H-1,2,3-triazol-4-yl)sulfonyl)pyrrolidin-3-yl)-1-(1-ethyl-1H-pyrazol-4-yl)-6-methyl-1H-indazole]: the IC50 in test [1] was found to be 31 nM. The Ki in test [2] was determined as 76 nM.

Consider `Cc1cc2c(cnn2-c2ccn(C)n2)cc1C1(Cc2ccccc2)CCN(S(=O)(=O)c2cnn(C)n2)C1` (centres unmarked) [Example 259, 5-(3-benzyl-1-((2-methyl-2H-1,2,3-triazol-4-yl)sulfonyl)pyrrolidin-3-yl)-6-methyl-1-(1-methyl-1H-pyrazol-3-yl)-1H-indazole], for which the IC50 in test [1] is 180 nM. This compound showed a Ki in test [2] of 540 nM.

`Cc1cc2c(cnn2-c2ccnn2C)cc1C1(Cc2ccccc2)CCN(S(=O)(=O)c2cnn(C)n2)C1` (centres unmarked) [Example 260, 5-(3-benzyl-1-((2-methyl-2H-1,2,3-triazol-4-yl)sulfonyl)pyrrolidin-3-yl)-6-methyl-1-(1-methyl-1H-pyrazol-5-yl)-1H-indazole]: in test [1], the 50% inhibitory concentration (IC50) came out at 150 nM. In test [2], the Ki amounted to 350 nM.

`[2H]C([2H])([2H])n1cc(-n2ncc3cc(C4(Cc5ccccc5)CCN(S(=O)(=O)c5cnn(C)n5)C4)c(C)cc32)ccc1=O` (centres unmarked) [Example 261, 5-(5-(3-benzyl-1-((2-methyl-2H-1,2,3-triazol-4-yl)sulfonyl)pyrrolidin-3-yl)-6-methyl-1H-indazol-1-yl)-1-(methyl-d3)pyridin-2(1H)-one]: the 50% inhibitory concentration (IC50) in test [1] turned out to be 2.9 nM. In test [2], this compound came in with an inhibitory constant (Ki) of 44 nM.

For `Cc1cc2c(cnn2-c2cc(C3CC3)c(=O)n(C)c2)cc1C1(Cc2ccccc2)CCN(S(=O)(=O)c2cnn(C)n2)C1` (centres unmarked) [Example 262, 5-(5-(3-benzyl-1-((2-methyl-2H-1,2,3-triazol-4-yl)sulfonyl)pyrrolidin-3-yl)-6-methyl-1H-indazol-1-yl)-3-cyclopropyl-1-methylpyridin-2(1H)-one], the IC50 in test [1] came to 280 nM. This compound also registered a Ki in test [2] of 190 nM.

As to `CCc1cc(-n2ncc3cc(C4(Cc5ccccc5)CCN(S(=O)(=O)c5cnn(C)n5)C4)c(C)cc32)cn(C)c1=O` (centres unmarked) [Example 263, 5-(5-(3-benzyl-1-((2-methyl-2H-1,2,3-triazol-4-yl)sulfonyl)pyrrolidin-3-yl)-6-methyl-1H-indazol-1-yl)-3-ethyl-1-methylpyridin-2(1H)-one], the IC50 in test [1] was 110 nM. Besides, in test [2], the Ki turned out to be 100 nM.

As to `Cc1cc2c(cnn2-c2cnn(C3COC3)c2)cc1C1(Cc2ccccc2)CCN(S(=O)(=O)c2cnn(C)n2)C1` (centres unmarked) [Example 264, 5-(3-benzyl-1-((2-methyl-2H-1,2,3-triazol-4-yl)sulfonyl)pyrrolidin-3-yl)-6-methyl-1-(1-(oxetan-3-yl)-1H-pyrazol-4-yl)-1H-indazole], the IC50 in test [1] stood at 26 nM. In test [2], this compound gave a Ki of 210 nM.

In the case of `COc1cc2c(cnn2-c2ccc(=O)n(C)c2)cc1C1(Cc2ccccc2)CCN(S(=O)(=O)c2cnn(C)n2)C1` (centres unmarked) [Example 265, 5-(5-(3-benzyl-1-((2-methyl-2H-1,2,3-triazol-4-yl)sulfonyl)pyrrolidin-3-yl)-6-methoxy-1H-indazol-1-yl)-1-methylpyridin-2(1H)-one], the IC50 in test [1] worked out at 16 nM. The compound also yielded a Ki in test [2] of 120 nM.

As for `Cc1cc2c(cnn2-c2ccc(=O)n(C)c2)cc1C1(Cc2ccccc2)CCN(S(=O)(=O)c2cnn(C)n2)C1` (centres unmarked) [Example 266, 5-(5-(3-benzyl-1-((2-methyl-2H-1,2,3-triazol-4-yl)sulfonyl)pyrrolidin-3-yl)-6-methyl-1H-indazol-1-yl)-1-methylpyridin-2(1H)-one], the IC50 in test [1] turned out to be 4.7 nM. In test [2], this compound showed a Ki of 40 nM.

Regarding `Cc1cc2c(cnn2-c2ccc(=O)[nH]c2)cc1C1(Cc2ccccc2)CCN(S(=O)(=O)c2cnn(C)n2)C1` (centres unmarked) [Example 267, 5-(5-(3-benzyl-1-((2-methyl-2H-1,2,3-triazol-4-yl)sulfonyl)pyrrolidin-3-yl)-6-methyl-1H-indazol-1-yl)pyridin-2(1H)-one], in test [1], the IC50 is 5.6 nM. Moreover, the Ki in test [2] was determined as 93 nM.

For the compound `Cc1cc2c(cnn2-c2cc(C)c(=O)n(C)c2)cc1C1(Cc2ccccc2)CCN(S(=O)(=O)c2ccc(F)c(F)c2)C1` (centres unmarked) [Example 271, 5-(5-(3-benzyl-1-((3,4-difluorophenyl)sulfonyl)pyrrolidin-3-yl)-6-methyl-1H-indazol-1-yl)-1,3-dimethylpyridin-2(1H)-one], the IC50 in test [1] turned out to be 20 nM. This compound had a Ki in test [2] of 55 nM.

For `Cc1cc2c(cnn2-c2cnn(C)c2)cc1C1(Cc2ccccc2)CCN(S(=O)(=O)c2ccc(F)c(F)c2)C1` (centres unmarked) [Example 272, 5-(3-benzyl-1-((3,4-difluorophenyl)sulfonyl)pyrrolidin-3-yl)-6-methyl-1-(1-methyl-1H-pyrazol-4-yl)-1H-indazole], the IC50 in test [1] was 22 nM. Further, the Ki in test [2] is 29 nM.

`Cc1cc2c(cnn2-c2ccc(=O)n(C)c2)cc1C1(C(C)c2ccccc2)CCN(S(=O)(=O)c2cnn(C)n2)C1` (centres unmarked) [Example 274, 1-methyl-5-(6-methyl-5-(1-((2-methyl-2H-1,2,3-triazol-4-yl)sulfonyl)-3-(1-phenylethyl)pyrrolidin-3-yl)-1H-indazol-1-yl)pyridin-2(1H)-one]: the IC50 in test [1] came out at 81 nM. The Ki in test [2] was determined as 290 nM.

In the case of `Cc1cc2c(cnn2-c2ccc(=O)n(C)c2)cc1C1(Cc2ccccc2)CCN(S(=O)(=O)c2cn(C)nn2)C1` (centres unmarked) [Example 275, 5-(5-(3-benzyl-1-((1-methyl-1H-1,2,3-triazol-4-yl)sulfonyl)pyrrolidin-3-yl)-6-methyl-1H-indazol-1-yl)-1-methylpyridin-2(1H)-one], in test [1], the IC50 is 18 nM. In addition, affinity in test [2] was put at a Ki of 70 nM.

For the compound `Cc1cc2c(cnn2-c2ccc(=O)n(C)c2)cc1C1(Cc2ccccc2)CCN(S(=O)(=O)c2ccn(C)n2)C1` (centres unmarked) [Example 276, 5-(5-(3-benzyl-1-((1-methyl-1H-pyrazol-3-yl)sulfonyl)pyrrolidin-3-yl)-6-methyl-1H-indazol-1-yl)-1-methylpyridin-2(1H)-one], the IC50 in test [1] stood at 5.4 nM. Besides, the Ki in test [2] stood at 52 nM.

Consider `Cc1cc2c(cnn2-c2ccc(=O)n(C)c2)cc1C1(Cc2ccccc2)CCN(S(=O)(=O)c2cccnc2)C1` (centres unmarked) [Example 286, 5-(5-(3-benzyl-1-(pyridin-3-ylsulfonyl)pyrrolidin-3-yl)-6-methyl-1H-indazol-1-yl)-1-methylpyridin-2(1H)-one], for which the IC50 in test [1] was determined as 11 nM. This compound showed a Ki in test [2] of 52 nM.

As for `Cc1cc2c(cnn2-c2ccc(=O)n(C)c2)cc1C1(Cc2ccccc2)CCN(S(=O)(=O)c2ccc(F)c(F)c2)C1` (centres unmarked) [Example 287, 5-(5-(3-benzyl-1-((3,4-difluorophenyl)sulfonyl)pyrrolidin-3-yl)-6-methyl-1H-indazol-1-yl)-1-methylpyridin-2(1H)-one], the IC50 in test [1] was 6.7 nM. In test [2], this compound had a Ki of 25 nM.
